Data on 13 molecules can be found in patent publication US10189837B2, “Crystalline (8S,9R)-5-fluoro-8-(4-fluorophenyl)-9-(1-methyl-1H-1,2,4-triazol-5-yl)-8,9-dihydro-2H-pyrido[4,3,2-de]phthalazin-3(7H)-one tosylate salt” (Medivation Technologies, LLC, priority 2010, dated 2019).

Format in all cases: physicochemical
Data set [1] is described as follows: Thermogravimetric analysis (TGA). Particulars: for % Change in weight: ramp 10.00 °C/min to 400.00 °C; for Weight Change: ramp 10.00 °C/min to 300.00 °C. The procedure: Unless otherwise noted, TGA thermograms were acquired using a TA Instruments Q500 Thermogravimetric Analyzer (New Castle, Del., USA). Samples were weighed out into the pan. Except as noted below, the temperature was ramped from 25.00° C. to 400.00° C. at 10.00° C./minute.
A TGA thermogram for tosylate salt prepared using the steps described in Variation 2 was acquired using a Mettler Toledo Thermogravimetric Analyzer/Differential Scanning Calorimeter 1. The temperature was ramped from 25° C. to 400° C. at 10° C./minute.

Data set [2] in a line: Thermogravimetric analysis (TGA). Particulars: ramp 10.00 °C/min to 300.00 °C.
The nature of data set [3]: Dynamic vapor sorption (DVS) isotherm. On the procedure:
1 model from Surface Measurement Systems Ltd. (Alperton, Middlesex, UK). A moisture adsorption desorption isotherm was performed as outlined below. The standard isotherm run is a cycle starting at RH 0% to RH 95% at 5% intervals, followed by drying to RH 0% in 5% RH intervals.

Where [4] appears, read: TGA, start about 25 °C, stop 120 °C, tosylate salt.
Setting [5] is: TGA, start about 25 °C, stop 250 °C, tosylate salt.

Take `Cc1ccc(S(=O)(=O)O)cc1.Cn1ncnc1[C@H]1c2n[nH]c(=O)c3cc(F)cc(c23)N[C@@H]1c1ccc(F)cc1` [compound 6, (8S,9R)-5-fluoro-8-(4-fluorophenyl)-9-(1-methyl-1H-1,2,4-triazol-5-yl)-8,9-dihydro-2H-pyrido[4,3,2-de]phthalazin-3(7H)-one tosylate salt]: the “% Change in weight” value in data set [1] (TGA, start 25.2 °C, stop 338.56 °C) was 24.56%; in data set [1] (setting [4]), 0.0388%; in data set [1] (setting [5]), 0.5425%.
On to `Cn1ncnc1[C@H]1c2n[nH]c(=O)c3cc(F)cc(c23)N[C@@H]1c1ccc(F)cc1` [compound 3, (8S,9R)-5-fluoro-8-(4-fluorophenyl)-9-(1-methyl-1H-1,2,4-triazol-5-yl)-8,9-dihydro-2H-pyrido[4,3,2-de]phthalazin-3(7H)-one], for which the “Weight Change” value is reported as 2.33% in data set [2] (TGA at 120 °C); 2.829% in data set [2] (TGA at 178 °C); 2.584% in data set [1] (TGA at 152 °C); 3.42% in data set [1] (TGA at 205 °C); 5.193% in data set [1] (TGA at 250 °C).
Consider `Cc1ccc(S(=O)(=O)O)cc1.Cn1ncnc1[C@H]1c2n[nH]c(=O)c3cc(F)cc(c23)N[C@@H]1c1ccc(F)cc1` [compound 5, (8S,9R)-5-fluoro-8-(4-fluorophenyl)-9-(1-methyl-1H-1,2,4-triazol-5-yl)-8,9-dihydro-2H-pyrido[4,3,2-de]phthalazin-3(7H)-one tosylate salt], for which the “% Change in weight” value stood at 43.54% in data set [1] (TGA, start 25.13 °C, stop 340.46 °C); 0.1231% in data set [1] (setting [4]); 0.2894% in data set [1] (setting [5]).
`Cn1ncnc1[C@H]1c2n[nH]c(=O)c3cc(F)cc(c23)N[C@@H]1c1ccc(F)cc1` [compound 1, (8S,9R)-5-fluoro-8-(4-fluorophenyl)-9-(1-methyl-1H-1,2,4-triazol-5-yl)-8,9-dihydro-2H-pyrido[4,3,2-de]phthalazin-3(7H)-one]: the “Weight Change” value in data set [2] (TGA at 120 °C) stood at 1.45%; in data set [2] (TGA at 238 °C), 9.214%; in data set [2] (TGA at […]), 4.068%; in data set [1] (TGA at 225 °C) it was 9.125%; in data set [1] (TGA at 252 °C), 9.265%.
As for `Cc1ccc(S(=O)(=O)O)cc1.Cn1ncnc1[C@H]1c2n[nH]c(=O)c3cc(F)cc(c23)N[C@@H]1c1ccc(F)cc1` [compound 8, (8S,9R)-5-fluoro-8-(4-fluorophenyl)-9-(1-methyl-1H-1,2,4-triazol-5-yl)-8,9-dihydro-2H-pyrido[4,3,2-de]phthalazin-3(7H)-one tosylate salt], the “weight gain (DVA)” value in data set [3] (from 0%-95% RH) came to 0.1574%. In addition, the “% Change in weight” value worked out at 2.071% in data set [1] (TGA, start 24.9 °C, stop 274.33 °C); 19.97% in data set [1] (TGA, start 24.9 °C, stop 320 °C); 34.56% in data set [1] (TGA, start 24.9 °C, stop 335 °C); 50.39% in data set [1] (TGA, start 24.9 °C, stop 363.03 °C); 54.39% in data set [1] (TGA, start 24.9 °C, stop 394.92 °C); 0.06696% in data set [1] (setting [4]).
As for `Cn1ncnc1[C@H]1c2n[nH]c(=O)c3cc(F)cc(c23)N[C@@H]1c1ccc(F)cc1` [compound 24, (8S,9R)-5-fluoro-8-(4-fluorophenyl)-9-(1-methyl-1H-1,2,4-triazol-5-yl)-8,9-dihydro-2H-pyrido[4,3,2-de]phthalazin-3(7H)-one], the weight loss in data set [1] (TGA at 223.8 °C) stood at 17.47%; in data set [1] (TGA, ambient to 120 °C), 0.9388%.
For the molecule `Cn1ncnc1[C@H]1c2n[nH]c(=O)c3cc(F)cc(c23)N[C@@H]1c1ccc(F)cc1` [compound 11, (8S,9R)-5-fluoro-8-(4-fluorophenyl)-9-(1-methyl-1H-1,2,4-triazol-5-yl)-8,9-dihydro-2H-pyrido[4,3,2-de]phthalazin-3(7H)-one], the weight loss in data set [1] (TGA at 134.8 °C) came to 5.72%.
In the case of `Cn1ncnc1[C@H]1c2n[nH]c(=O)c3cc(F)cc(c23)N[C@@H]1c1ccc(F)cc1` [compound 21, (8S,9R)-5-fluoro-8-(4-fluorophenyl)-9-(1-methyl-1H-1,2,4-triazol-5-yl)-8,9-dihydro-2H-pyrido[4,3,2-de]phthalazin-3(7H)-one], the weight loss in data set [1] (TGA at 142.46 °C) came out at 3.7%; in data set [1] (TGA at 256.48 °C), 4.259%.
For the molecule `Cn1ncnc1[C@H]1c2n[nH]c(=O)c3cc(F)cc(c23)N[C@@H]1c1ccc(F)cc1` [compound 12, (8S,9R)-5-fluoro-8-(4-fluorophenyl)-9-(1-methyl-1H-1,2,4-triazol-5-yl)-8,9-dihydro-2H-pyrido[4,3,2-de]phthalazin-3(7H)-one], the weight loss in data set [1] (TGA at 139.06 °C) is given as 7.034%.
On to `Cn1ncnc1[C@H]1c2n[nH]c(=O)c3cc(F)cc(c23)N[C@@H]1c1ccc(F)cc1` [compound 20, (8S,9R)-5-fluoro-8-(4-fluorophenyl)-9-(1-methyl-1H-1,2,4-triazol-5-yl)-8,9-dihydro-2H-pyrido[4,3,2-de]phthalazin-3(7H)-one], for which the “Weight Change” value is listed as 1.926% in data set [2] (TGA at 120 °C), 3.234% in data set [2] (TGA at 189.67 °C), 3.448% in data set [2] (TGA at 256.48 °C) and 3.167% in data set [1] (TGA at 174.03 °C).
Regarding `Cc1ccc(S(=O)(=O)O)cc1.Cn1ncnc1[C@H]1c2n[nH]c(=O)c3cc(F)cc(c23)N[C@@H]1c1ccc(F)cc1` [compound 7, (8S,9R)-5-fluoro-8-(4-fluorophenyl)-9-(1-methyl-1H-1,2,4-triazol-5-yl)-8,9-dihydro-2H-pyrido[4,3,2-de]phthalazin-3(7H)-one tosylate salt], the “% Change in weight” value in data set [1] (TGA, start 25.5 °C, stop 334 °C) was found to be 26.55%; in data set [1] (setting [4]), 0.2109%; in data set [1] (setting [5]), 2.552%.
On to `Cc1ccc(S(=O)(=O)O)cc1.Cn1ncnc1[C@H]1c2n[nH]c(=O)c3cc(F)cc(c23)N[C@@H]1c1ccc(F)cc1` [(8S,9R)-5-fluoro-8-(4-fluorophenyl)-9-(1-methyl-1H-1,2,4-triazol-5-yl)-8,9-dihydro-2H-pyrido[4,3,2-de]phthalazin-3(7H)-one mono-tosylate salt], for which, in data set [3] (25 °C, humidity 0% to 95%), the “hygroscopicity (DVS)” value is reported as “not hygroscopic”. Moreover, the “weight gain (DVS)” value in data set [3] (25 °C, humidity increased from 0% to 95%) was “less than 1%”. Also, the “Change in Mass (%) Desorption” value in data set [3] (Target % P/Po 0.0) is recorded as −0.0015%; in data set [3] (Target % P/Po 5.0) it was 0.0203%; in data set [3] (Target % P/Po 10.0), 0.0326%; in data set [3] (Target % P/Po 15.0), 0.0421%; in data set [3] (Target % P/Po 20.0), 0.0513%; in data set [3] (Target % P/Po 25.0), 0.0649%. Also, the “Change in Mass (%) Desorption” value is 0.0791% in data set [3] (Target % P/Po 30.0); 0.0947% in data set [3] (Target % P/Po 35.0); 0.1084% in data set [3] (Target % P/Po 40.0); 0.1266% in data set [3] (Target % P/Po 45.0); 0.1456% in data set [3] (Target % P/Po 50.0); 0.1668% in data set [3] (Target % P/Po 55.0). The “Change in Mass (%) Desorption” value stood at 0.1895% in data set [3] (Target % P/Po 60.0); 0.2192% in data set [3] (Target % P/Po 65.0); 0.2535% in data set [3] (Target % P/Po 70.0); 0.2919% in data set [3] (Target % P/Po 75.0); 0.3402% in data set [3] (Target % P/Po 80.0); 0.4113% in data set [3] (Target % P/Po 85.0). Also, the “Change in Mass (%) Desorption” value was 0.5230% in data set [3] (Target % P/Po 90.0) and 0.7473% in data set [3] (Target % P/Po 95.0). The “stability to heat (TGA trace)” value in data set [1] (25 °C to 400 °C at 10 °C/minute, prior to the onset of decomposition at the melting point) is on record as “stable to heat”.
On to `Cn1ncnc1[C@H]1c2n[nH]c(=O)c3cc(F)cc(c23)N[C@@H]1c1ccc(F)cc1` [compound 19, (8S,9R)-5-fluoro-8-(4-fluorophenyl)-9-(1-methyl-1H-1,2,4-triazol-5-yl)-8,9-dihydro-2H-pyrido[4,3,2-de]phthalazin-3(7H)-one], for which the “Weight Change” value was found to be 1.054% in data set [2] (TGA at 120 °C); 5.977% in data set [2] (TGA at 174 °C); 7.82% in data set [2] (TGA at 185 °C); 8.874% in data set [2] (TGA at 238 °C); 4.256% in data set [1] (TGA at 161 °C).
